Laboratory results reported in patent US20260262643A1, “HERBICIDAL BENZOXAZINES” (FMC CORPORATION, priority 2022, published 2026).

How the values were obtained:
blackgrass [1] = assay: Test C preemergence; assay type: in vivo, Alopecurus myosuroides; conditions: 0 to 100 scale (0 no effect, 100 complete control); for Blackgrass plant response rating: preemergence
Summary of the method: (§1)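 Seeds sown in loam soil–sand blend received a directed preemergence soil spray of test chemical in non-phytotoxic solvent with surfactant; postemergence plants (2–10 cm, one- to two-leaf stage) were sprayed with the same formulation. Greenhouse-held 10 days, then visually rated for injury versus untreated controls, 0 (no effect) to 100 (complete control).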

corn [2] = assay: Test C preemergence; assay type: in vivo, Zea mays; conditions: 0 to 100 scale (0 no effect, 100 complete control); for Corn plant response rating: preemergence
Summary of the method: as §1

foxtail, giant [3] = assay: Test C preemergence; assay type: in vivo, Setaria faberi; conditions: 0 to 100 scale (0 no effect, 100 complete control); for Foxtail, Giant plant response rating: preemergence
Summary of the method: as §1

goosegrass [4] = assay: Test C preemergence; assay type: in vivo, Eleusine indica; conditions: 0 to 100 scale (0 no effect, 100 complete control); for Goosegrass plant response rating: preemergence
Text: (§2) Seeds of plant species selected from barnyardgrass (Echinochloa crusgalli), blackgrass (Alopecurus myosuroides), corn (Zea mays), foxtail, giant (giant foxtail, Setaria faberi), green foxtail (Setaria viridis), goosegrass (Eleusine indica), kochia (Bassia scoparia), oat, wild (wild oat, Avena fatua), pigweed, palmer (palmer amaranth, palmer pigweed, Amaranthus palmeri), Pigweed, Redroot (redroot pigweed, Amaranthus retroflexus), ragweed (common ragweed, Ambrosia artemisiifolia), ryegrass, Italian ([…] ryegrass, Lolium multiflorum), soybean (Glycine max), and wheat (Triticum aestivum) were planted into a blend of loam soil and sand and treated preemergence with a directed soil spray using test chemicals formulated in a non-phytotoxic solvent mixture which included a surfactant. At the same time, plants selected from these crops and weed species and also galium (catchweed bedstraw, Galium aparine) and horseweed (Erigeron canadensis) were planted in pots containing the same blend of loam soil and sand and treated with postemergence applications of test chemicals formulated in the same manner. Plants ranged in height from 2 to 10 cm and were in the one- to two-leaf stage for the postemergence treatment. Treated plants and untreated controls were maintained in a greenhouse for 10 days, after which time all treated plants were compared to untreated controls and visually evaluated for injury. Plant response ratings, summarized in Table C, are based on a 0 to 100 scale where 0 is no effect and 100 is complete control. A dash (-) response means no test result.

kochia [5] = assay: Test C preemergence; assay type: in vivo, Bassia scoparia; conditions: 0 to 100 scale (0 no effect, 100 complete control); for Kochia plant response rating: preemergence
Summary of the method: as §1

oat, wild [6] = assay: Test C preemergence; assay type: in vivo, Avena fatua; conditions: 0 to 100 scale (0 no effect, 100 complete control); for Oat, Wild plant response rating: preemergence
Summary of the method: as §1

pigweed, palmer [7] = assay: Test C preemergence; assay type: in vivo, Amaranthus palmeri; conditions: 0 to 100 scale (0 no effect, 100 complete control); for Pigweed, Palmer plant response rating: preemergence
Summary of the method: as §1

ragweed [8] = assay: Test C preemergence; assay type: in vivo, Ambrosia artemisiifolia; conditions: 0 to 100 scale (0 no effect, 100 complete control); for Ragweed plant response rating: preemergence
Summary of the method: as §1

ryegrass, Italian [9] = assay: Test C preemergence; assay type: in vivo, Lolium multiflorum; conditions: 0 to 100 scale (0 no effect, 100 complete control); for Ryegrass, Italian plant response rating: preemergence
Summary of the method: as §1

soybean [10] = assay: Test C preemergence; assay type: in vivo, Glycine max; conditions: 0 to 100 scale (0 no effect, 100 complete control); for Soybean plant response rating: preemergence
Summary of the method: as §1

wheat [11] = assay: Test C preemergence; assay type: in vivo, Triticum aestivum; conditions: 0 to 100 scale (0 no effect, 100 complete control); for Wheat plant response rating: preemergence
Summary of the method: as §1

blackgrass [12] = assay: Test C postemergence; assay type: in vivo, Alopecurus myosuroides; conditions: 10 days
Summary of the method: as §1

corn [13] = assay: Test C postemergence; assay type: in vivo, Zea mays; conditions: 10 days
Summary of the method: as §1

foxtail, giant [14] = assay: Test C postemergence; assay type: in vivo, Setaria faberi; conditions: 10 days
Summary of the method: as §1

goosegrass [15] = assay: Test C postemergence; assay type: in vivo, Eleusine indica; conditions: 10 days
Text: as §2

kochia [16] = assay: Test C postemergence; assay type: in vivo, Bassia scoparia; conditions: 10 days
Summary of the method: as §1

oat, wild [17] = assay: Test C postemergence; assay type: in vivo, Avena fatua; conditions: 10 days
Summary of the method: as §1

pigweed, palmer [18] = assay: Test C postemergence; assay type: in vivo, Amaranthus palmeri; conditions: 10 days
Summary of the method: as §1

ragweed [19] = assay: Test C postemergence; assay type: in vivo, Ambrosia artemisiifolia; conditions: 10 days
Summary of the method: as §1

ryegrass, Italian [20] = assay: Test C postemergence; assay type: in vivo, Lolium multiflorum; conditions: 10 days
Summary of the method: as §1

soybean [21] = assay: Test C postemergence; assay type: in vivo, Glycine max; conditions: 10 days
Summary of the method: as §1

wheat [22] = assay: Test C postemergence; assay type: in vivo, Triticum aestivum; conditions: 10 days
Summary of the method: as §1

galium = assay: Test C postemergence; assay type: in vivo, Galium aparine; conditions: 10 days
Summary of the method: as §1

horseweed = assay: Test C postemergence; assay type: in vivo, Erigeron canadensis; conditions: 10 days
Summary of the method: as §1

barnyardgrass = assay: Test D flooded paddy test; assay type: in vivo, Echinochloa crus-galli; conditions: 250 g ai/ha, applied to paddy water, visual rating after 13 to 14 days, scale 0 to 100 (0 no effect, 100 complete control)
Summary of the method: (§3)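 Plants grown to the 2-leaf stage; pots flooded to 3 cm above soil at treatment and held at that depth throughout. Test compounds applied directly to the paddy water. After 13 to 14 days in a greenhouse, response was rated visually versus controls on a 0 (no effect) to 100 (complete control) scale.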

ducksalad = assay: Test D flooded paddy test; assay type: in vivo, Heteranthera limosa; conditions: 250 g ai/ha, applied to paddy water, visual rating after 13 to 14 days, scale 0 to 100 (0 no effect, 100 complete control)
Summary of the method: as §3

rice = assay: Test D flooded paddy test; assay type: in vivo, Oryza sativa; conditions: 250 g ai/ha, applied to paddy water, visual rating after 13 to 14 days, scale 0 to 100 (0 no effect, 100 complete control)
Summary of the method: as §3

sedge, umbrella = assay: Test D flooded paddy test; assay type: in vivo, Cyperus difformis; conditions: 250 g ai/ha, applied to paddy water, visual rating after 13 to 14 days, scale 0 to 100 (0 no effect, 100 complete control)
Summary of the method: as §3

[23] = Preemergence, 500 g ai/ha, visual rating after 10 days
[24] = 125 g ai/ha, postemergence, 0 to 100 scale, 0 no effect, 100 complete control
[25] = Postemergence, 500 g ai/ha, visual 0 to 100 scale (0 no effect, 100 complete control)
[26] = 500 g ai/ha, postemergence, 0 to 100 scale (0 no effect, 100 complete control)

Cc1cccc2c1OC(C)CN2C(=O)c1cccc(-n2ncnc2C2CC2)c1 (racemic) [Compound 196]
Plant response rating, Blackgrass (blackgrass [1]; [23]): 0
Blackgrass plant response rating (blackgrass [1]; Test C, 125 g ai/ha): 0
Plant response rating, Corn (corn [2]; [23]): 20
Corn plant response rating (corn [2]; Test C, 125 g ai/ha): 0
Plant response rating, Foxtail, Giant (foxtail, giant [3]; [23]): 0
Foxtail, Giant plant response rating (foxtail, giant [3]; Test C, 125 g ai/ha): 0
Plant response rating, Goosegrass (goosegrass [4]; [23]): 0
Goosegrass plant response rating (goosegrass [4]; Test C, 125 g ai/ha): 0
Plant response rating, Kochia (kochia [5]; [23]): 0
Kochia plant response rating (kochia [5]; Test C, 125 g ai/ha): 0
Plant response rating, Oat, Wild (oat, wild [6]; [23]): 0
Oat, Wild plant response rating (oat, wild [6]; Test C, 125 g ai/ha): 0
Plant response rating, Pigweed, Palmer (pigweed, palmer [7]; [23]): 0
Pigweed, Palmer plant response rating (pigweed, palmer [7]; Test C, 125 g ai/ha): 0
Plant response rating, Ragweed (ragweed [8]; [23]): 0
Ragweed plant response rating (ragweed [8]; Test C, 125 g ai/ha): 0
Plant response rating, Ryegrass, Italian (ryegrass, Italian [9]; [23]): 0
Ryegrass, Italian plant response rating (ryegrass, Italian [9]; Test C, 125 g ai/ha): 0
Plant response rating, Soybean (soybean [10]; [23]): 0
Soybean plant response rating (soybean [10]; Test C, 125 g ai/ha): 0
Plant response rating, Wheat (wheat [11]; [23]): 0
Wheat plant response rating (wheat [11]; Test C, 125 g ai/ha): 0
Plant response rating, Blackgrass (blackgrass [12]; [24]): 0
Plant response rating, Blackgrass (blackgrass [12]; [25]): 0
Plant response rating, Corn (corn [13]; [24]): 0
Plant response rating, Corn (corn [13]; [25]): 0
Plant response rating, Foxtail, Giant (foxtail, giant [14]; [24]): 0
Plant response rating, Foxtail, Giant (foxtail, giant [14]; [25]): 0
Plant response rating, Goosegrass (goosegrass [15]; [24]): 0
Plant response rating, Goosegrass (goosegrass [15]; [25]): 0
Plant response rating, Kochia (kochia [16]; [24]): 0
Plant response rating, Kochia (kochia [16]; [25]): 0
Plant response rating, Oat, Wild (oat, wild [17]; [24]): 0
Plant response rating, Oat, Wild (oat, wild [17]; [25]): 0
Plant response rating, Pigweed, Palmer (pigweed, palmer [18]; [24]): 30
Plant response rating, Pigweed, Palmer (pigweed, palmer [18]; [25]): 0
Plant response rating, Ragweed (ragweed [19]; [24]): 0
Plant response rating, Ragweed (ragweed [19]; [25]): 0
Plant response rating, Ryegrass, Italian (ryegrass, Italian [20]; [24]): 0
Plant response rating, Ryegrass, Italian (ryegrass, Italian [20]; [25]): 0
Plant response rating, Soybean (soybean [21]; [24]): 0
Plant response rating, Soybean (soybean [21]; [25]): 0
Plant response rating, Wheat (wheat [22]; [24]): 0
Plant response rating, Wheat (wheat [22]; [25]): 0
Plant response rating, Galium (galium; [24]): 0
Plant response rating, Galium (galium; [25]): 0
Plant response rating, Horseweed (horseweed; [24]): 0
Plant response rating, Horseweed (horseweed; [25]): 0
Plant response rating, Barnyardgrass (Flood) (barnyardgrass): 0
Plant response rating, Ducksalad (Flood) (ducksalad): 0
Plant response rating, Rice (Flood) (rice): 0
Plant response rating, Sedge, Umbrella (Flood) (sedge, umbrella): 0

Cc1cccc2c1O[C@@H](C)CN2C(=O)c1cccc(-n2cnc(C#C[Si](C)(C)C)n2)c1 [Compound 284]
Blackgrass plant response rating (blackgrass [1]; 500 g ai/ha): 60
Blackgrass plant response rating (blackgrass [1]; Test C, 125 g ai/ha): 0
Corn plant response rating (corn [2]; 500 g ai/ha): 0
Corn plant response rating (corn [2]; Test C, 125 g ai/ha): 0
Foxtail, Giant plant response rating (foxtail, giant [3]; 500 g ai/ha): 90
Foxtail, Giant plant response rating (foxtail, giant [3]; Test C, 125 g ai/ha): 0
Goosegrass plant response rating (goosegrass [4]; 500 g ai/ha): 90
Goosegrass plant response rating (goosegrass [4]; Test C, 125 g ai/ha): 10
Kochia plant response rating (kochia [5]; 500 g ai/ha): 10
Kochia plant response rating (kochia [5]; Test C, 125 g ai/ha): 0
Oat, Wild plant response rating (oat, wild [6]; 500 g ai/ha): 70
Oat, Wild plant response rating (oat, wild [6]; Test C, 125 g ai/ha): 20
Pigweed, Palmer plant response rating (pigweed, palmer [7]; 500 g ai/ha): 0
Pigweed, Palmer plant response rating (pigweed, palmer [7]; Test C, 125 g ai/ha): 0
Ragweed plant response rating (ragweed [8]; 500 g ai/ha): 0
Ragweed plant response rating (ragweed [8]; Test C, 125 g ai/ha): 0
Ryegrass, Italian plant response rating (ryegrass, Italian [9]; 500 g ai/ha): 90
Ryegrass, Italian plant response rating (ryegrass, Italian [9]; Test C, 125 g ai/ha): 50
Soybean plant response rating (soybean [10]; 500 g ai/ha): 0
Soybean plant response rating (soybean [10]; Test C, 125 g ai/ha): 0
Wheat plant response rating (wheat [11]; 500 g ai/ha): 10
Wheat plant response rating (wheat [11]; Test C, 125 g ai/ha): 0
Plant response rating, Blackgrass (blackgrass [12]; [24]): 0
Plant response rating, Blackgrass (blackgrass [12]; [26]): 40
Plant response rating, Corn (corn [13]; [24]): 0
Plant response rating, Corn (corn [13]; [26]): 10
Plant response rating, Foxtail, Giant (foxtail, giant [14]; [24]): 10
Plant response rating, Foxtail, Giant (foxtail, giant [14]; [26]): 20
Plant response rating, Goosegrass (goosegrass [15]; [24]): 10
Plant response rating, Goosegrass (goosegrass [15]; [26]): 30
Plant response rating, Kochia (kochia [16]; [24]): 10
Plant response rating, Kochia (kochia [16]; [26]): 50
Plant response rating, Oat, Wild (oat, wild [17]; [24]): 10
Plant response rating, Oat, Wild (oat, wild [17]; [26]): 10
Plant response rating, Pigweed, Palmer (pigweed, palmer [18]; [24]): 40
Plant response rating, Pigweed, Palmer (pigweed, palmer [18]; [26]): 60
Plant response rating, Ragweed (ragweed [19]; [24]): 0
Plant response rating, Ragweed (ragweed [19]; [26]): 0
Plant response rating, Ryegrass, Italian (ryegrass, Italian [20]; [24]): 0
Plant response rating, Ryegrass, Italian (ryegrass, Italian [20]; [26]): 0
Plant response rating, Soybean (soybean [21]; [24]): 20
Plant response rating, Soybean (soybean [21]; [26]): 30
Plant response rating, Wheat (wheat [22]; [24]): 10
Plant response rating, Wheat (wheat [22]; [26]): 10
Plant response rating, Galium (galium; [24]): 70
Plant response rating, Galium (galium; [26]): 90
Plant response rating, Horseweed (horseweed; [24]): 0
Plant response rating, Horseweed (horseweed; [26]): 50
Plant response rating, Barnyardgrass (Flood) (barnyardgrass): 0
Plant response rating, Ducksalad (Flood) (ducksalad): 65
Plant response rating, Rice (Flood) (rice): 0
Plant response rating, Sedge, Umbrella (Flood) (sedge, umbrella): 0
